Data on 1 molecule can be found in PMC4979471 (Cell Death Discovery, 2015).

What all share (experiment): Kinase selectivity, P33-radiolabeled assay
What all share (type): biochemical
Conditions in all cases: 10 μM ATP

The target in experiment [1] is T1, LOK/STK10 (Homo sapiens, UniProt O94804).
T1 construct: purchased Reaction Biology Corp
Summed up: (§1)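 Activity relative to DMSO controls (%) was measured for compound at 10 μM. Assays ran at 10 μM ATP, in duplicate.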

Experiment [2] deals with T2, ERK2/MAPK1 (Homo sapiens, UniProt P28482).
T2 construct: purchased Reaction Biology Corp
The method, boiled down: as §1

For experiment [3], the target named is T3, STK38/NDR1 (Homo sapiens, UniProt Q15208).
T3 construct: purchased Reaction Biology Corp
Summed up:
as §1

Experiment [4] addresses T4, GRK2 (Homo sapiens, UniProt P25098).
T4 construct: purchased Reaction Biology Corp
T4 sequence (P25098 1-689): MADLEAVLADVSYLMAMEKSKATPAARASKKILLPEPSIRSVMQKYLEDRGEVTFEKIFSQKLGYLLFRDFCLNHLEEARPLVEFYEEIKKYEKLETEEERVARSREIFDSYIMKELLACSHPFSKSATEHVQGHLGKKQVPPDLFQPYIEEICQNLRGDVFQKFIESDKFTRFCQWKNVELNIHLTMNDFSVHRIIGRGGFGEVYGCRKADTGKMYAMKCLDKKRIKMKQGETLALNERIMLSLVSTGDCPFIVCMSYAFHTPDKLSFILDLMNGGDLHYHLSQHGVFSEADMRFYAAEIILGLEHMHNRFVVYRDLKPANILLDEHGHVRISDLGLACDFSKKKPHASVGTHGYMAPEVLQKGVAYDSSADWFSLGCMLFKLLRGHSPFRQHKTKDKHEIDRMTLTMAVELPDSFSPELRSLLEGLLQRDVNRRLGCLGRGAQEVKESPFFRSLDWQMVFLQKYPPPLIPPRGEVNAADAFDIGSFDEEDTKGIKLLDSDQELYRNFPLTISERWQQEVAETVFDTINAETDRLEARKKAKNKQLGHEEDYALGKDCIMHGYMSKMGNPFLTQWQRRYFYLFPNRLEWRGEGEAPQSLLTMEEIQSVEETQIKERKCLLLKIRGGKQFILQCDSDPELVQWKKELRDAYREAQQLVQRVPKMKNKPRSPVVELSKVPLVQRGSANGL
The method, boiled down: as §1

The target of experiment [5] is T5, EPHB1 (Homo sapiens, UniProt P54762).
T5 construct: purchased Reaction Biology Corp
T5 sequence (P54762 18-984): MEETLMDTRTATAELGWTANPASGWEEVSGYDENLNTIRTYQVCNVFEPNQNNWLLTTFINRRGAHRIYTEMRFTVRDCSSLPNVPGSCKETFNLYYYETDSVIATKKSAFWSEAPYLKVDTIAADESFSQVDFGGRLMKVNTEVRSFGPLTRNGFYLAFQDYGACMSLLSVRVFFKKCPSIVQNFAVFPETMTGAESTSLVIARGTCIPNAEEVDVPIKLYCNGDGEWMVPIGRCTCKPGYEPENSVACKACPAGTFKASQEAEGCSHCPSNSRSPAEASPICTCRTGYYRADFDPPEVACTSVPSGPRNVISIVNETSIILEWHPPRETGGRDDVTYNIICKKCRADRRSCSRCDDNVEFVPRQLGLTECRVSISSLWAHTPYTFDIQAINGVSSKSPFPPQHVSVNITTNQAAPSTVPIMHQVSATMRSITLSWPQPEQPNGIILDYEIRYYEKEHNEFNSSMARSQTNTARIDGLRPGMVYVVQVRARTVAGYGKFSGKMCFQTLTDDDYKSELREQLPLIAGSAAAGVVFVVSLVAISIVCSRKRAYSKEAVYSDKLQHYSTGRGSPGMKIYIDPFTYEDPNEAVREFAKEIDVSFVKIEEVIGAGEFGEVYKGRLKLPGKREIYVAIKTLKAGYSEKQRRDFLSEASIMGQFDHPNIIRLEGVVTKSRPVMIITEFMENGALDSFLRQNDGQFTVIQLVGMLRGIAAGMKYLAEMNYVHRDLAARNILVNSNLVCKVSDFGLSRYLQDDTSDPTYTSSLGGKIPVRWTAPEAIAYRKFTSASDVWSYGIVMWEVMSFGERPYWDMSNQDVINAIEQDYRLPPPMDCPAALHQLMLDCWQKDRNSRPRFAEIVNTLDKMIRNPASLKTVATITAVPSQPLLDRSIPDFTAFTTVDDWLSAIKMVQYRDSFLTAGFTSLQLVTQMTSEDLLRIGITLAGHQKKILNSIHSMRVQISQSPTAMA
Summed up:
as §1

The target of experiment [6] is T6, CK2a (Homo sapiens, UniProt P68400).
T6 construct: purchased Reaction Biology Corp
The method, boiled down: as §1

Experiment [7] has as its target T7, BRSK2 (Homo sapiens, UniProt Q8IWQ3).
T7 construct: purchased Reaction Biology Corp
T7 sequence (Q8IWQ3 1-736): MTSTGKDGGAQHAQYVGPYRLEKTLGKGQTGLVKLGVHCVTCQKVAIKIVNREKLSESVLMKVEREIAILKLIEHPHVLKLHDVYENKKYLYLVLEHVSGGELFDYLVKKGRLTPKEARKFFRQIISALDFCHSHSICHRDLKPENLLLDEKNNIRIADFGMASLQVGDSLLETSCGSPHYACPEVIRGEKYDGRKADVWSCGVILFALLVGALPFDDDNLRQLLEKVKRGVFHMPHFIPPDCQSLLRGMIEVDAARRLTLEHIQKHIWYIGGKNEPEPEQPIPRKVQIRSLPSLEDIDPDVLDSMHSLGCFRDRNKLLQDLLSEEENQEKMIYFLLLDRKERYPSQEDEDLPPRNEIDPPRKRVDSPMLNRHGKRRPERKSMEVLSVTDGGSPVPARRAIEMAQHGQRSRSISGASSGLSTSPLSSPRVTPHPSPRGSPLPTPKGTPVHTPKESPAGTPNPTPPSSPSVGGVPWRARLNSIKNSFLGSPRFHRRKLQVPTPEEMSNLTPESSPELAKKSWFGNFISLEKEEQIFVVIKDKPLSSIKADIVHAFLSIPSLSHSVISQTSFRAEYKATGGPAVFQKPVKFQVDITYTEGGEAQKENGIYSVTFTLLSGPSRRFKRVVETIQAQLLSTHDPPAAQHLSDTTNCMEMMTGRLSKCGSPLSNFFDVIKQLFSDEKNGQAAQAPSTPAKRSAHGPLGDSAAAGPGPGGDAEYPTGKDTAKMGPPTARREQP
Summed up: as §1

[8] abbreviates: read-out: % Enzyme Activity (relative to DMSO controls) AVG.
[9] abbreviates: read-out: % Enzyme Activity (relative to DMSO controls) Data 1.
The mark [10] stands for this setting: read-out: % Enzyme Activity (relative to DMSO controls) Data 2.

Each structure is given as a SMILES string. Like-named read-outs stand apart in the source and are kept apart here.

T2 sequence (P28482 whole entry): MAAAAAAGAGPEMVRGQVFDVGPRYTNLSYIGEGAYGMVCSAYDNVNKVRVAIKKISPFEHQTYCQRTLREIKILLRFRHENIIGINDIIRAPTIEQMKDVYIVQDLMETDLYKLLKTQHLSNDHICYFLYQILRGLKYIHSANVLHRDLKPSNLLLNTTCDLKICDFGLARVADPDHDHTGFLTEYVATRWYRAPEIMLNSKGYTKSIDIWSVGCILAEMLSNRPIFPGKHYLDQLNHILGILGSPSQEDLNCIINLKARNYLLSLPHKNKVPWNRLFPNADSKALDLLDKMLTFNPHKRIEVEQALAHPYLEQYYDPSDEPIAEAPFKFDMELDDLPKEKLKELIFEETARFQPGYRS
T6 sequence (P68400 whole entry): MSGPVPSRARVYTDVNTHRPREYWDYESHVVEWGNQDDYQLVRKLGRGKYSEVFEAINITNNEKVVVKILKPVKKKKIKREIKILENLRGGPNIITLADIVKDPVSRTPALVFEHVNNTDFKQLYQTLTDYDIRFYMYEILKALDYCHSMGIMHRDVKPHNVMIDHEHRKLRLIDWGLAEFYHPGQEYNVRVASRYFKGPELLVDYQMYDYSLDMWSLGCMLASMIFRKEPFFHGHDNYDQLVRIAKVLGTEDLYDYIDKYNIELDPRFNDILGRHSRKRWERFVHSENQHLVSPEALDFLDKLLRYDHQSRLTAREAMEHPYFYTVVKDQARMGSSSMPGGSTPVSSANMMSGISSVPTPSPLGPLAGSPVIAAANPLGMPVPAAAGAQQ
T1 sequence (O94804 whole entry): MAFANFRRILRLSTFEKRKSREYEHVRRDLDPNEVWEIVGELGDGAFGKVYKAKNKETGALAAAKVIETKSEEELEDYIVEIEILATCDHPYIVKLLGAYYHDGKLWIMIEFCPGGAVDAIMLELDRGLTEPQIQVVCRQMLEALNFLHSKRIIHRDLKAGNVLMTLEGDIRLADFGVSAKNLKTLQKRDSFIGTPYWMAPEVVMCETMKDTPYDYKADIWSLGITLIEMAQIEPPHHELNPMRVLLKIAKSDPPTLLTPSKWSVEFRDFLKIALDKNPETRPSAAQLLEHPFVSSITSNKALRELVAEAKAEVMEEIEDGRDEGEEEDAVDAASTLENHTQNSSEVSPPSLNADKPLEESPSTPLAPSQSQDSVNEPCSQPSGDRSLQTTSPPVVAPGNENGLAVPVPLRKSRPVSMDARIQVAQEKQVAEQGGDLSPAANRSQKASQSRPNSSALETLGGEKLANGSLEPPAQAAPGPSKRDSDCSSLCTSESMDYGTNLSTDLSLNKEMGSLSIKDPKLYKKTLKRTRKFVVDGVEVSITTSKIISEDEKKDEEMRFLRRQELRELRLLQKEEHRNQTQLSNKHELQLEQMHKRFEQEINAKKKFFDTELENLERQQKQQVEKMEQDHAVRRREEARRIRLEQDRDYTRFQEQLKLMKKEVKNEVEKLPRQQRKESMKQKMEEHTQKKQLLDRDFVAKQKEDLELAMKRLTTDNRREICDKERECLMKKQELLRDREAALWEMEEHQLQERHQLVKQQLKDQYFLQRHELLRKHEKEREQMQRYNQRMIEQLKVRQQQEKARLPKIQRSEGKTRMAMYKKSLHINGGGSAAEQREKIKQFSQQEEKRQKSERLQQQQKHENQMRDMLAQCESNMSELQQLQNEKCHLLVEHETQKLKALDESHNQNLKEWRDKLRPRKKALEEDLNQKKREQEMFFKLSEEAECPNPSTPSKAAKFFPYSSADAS
T3 sequence (Q15208 whole entry): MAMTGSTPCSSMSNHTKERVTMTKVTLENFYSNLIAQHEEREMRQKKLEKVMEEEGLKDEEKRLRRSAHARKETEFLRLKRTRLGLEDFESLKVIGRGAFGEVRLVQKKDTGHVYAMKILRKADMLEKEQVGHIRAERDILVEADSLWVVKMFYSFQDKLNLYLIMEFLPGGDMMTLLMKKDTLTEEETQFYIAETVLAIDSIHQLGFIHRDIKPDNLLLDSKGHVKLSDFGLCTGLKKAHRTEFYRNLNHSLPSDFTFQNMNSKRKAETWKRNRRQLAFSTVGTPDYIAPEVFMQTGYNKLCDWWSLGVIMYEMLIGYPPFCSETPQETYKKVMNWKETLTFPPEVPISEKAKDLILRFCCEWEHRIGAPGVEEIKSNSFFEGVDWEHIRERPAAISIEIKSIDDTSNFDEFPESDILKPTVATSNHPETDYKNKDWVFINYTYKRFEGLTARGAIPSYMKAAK

On to `CC(C)(C)C(=O)N1N=CC[C@H]1c1ccccc1` [GSK′963], for which the remaining activity at 10 µM amounted to 94% in experiment [1] (setting [8]); 93.1% in experiment [1] (setting [9]); 95% in experiment [1] (setting [10]); 97.5% in experiment [2] (setting [8]); 96.5% in experiment [2] (setting [9]); 98.5% in experiment [2] (setting [10]). For the same molecule, the remaining activity at 10 µM turned out to be 102% in experiment [3] (setting [8]); 100% in experiment [3] (setting [9]); 104% in experiment [3] (setting [10]); 95.7% in experiment [4] (setting [8]); 99.5% in experiment [4] (setting [9]); 91.8% in experiment [4] (setting [10]). Also, the remaining activity at 10 µM was 99.4% in experiment [5] (setting [8]); 98.8% in experiment [5] (setting [9]); 100% in experiment [5] (setting [10]); 99.4% in experiment [6] (setting [8]); 105% in experiment [6] (setting [9]); 93.8% in experiment [6] (setting [10]). Further, the results for the remaining activity at 10 µM in experiment [7] (setting [8]), in experiment [7] (setting [9]) and in experiment [7] (setting [10]) were 104%, 109% and 98.7%, respectively.
